From patent publication US20210046162A1, “Teriparatide Use for Bone Stress Fractures/Reactions” (University of South Carolina, priority 2019, published 2021)
Where two headings read alike, the source gives them in different places.

How the values were obtained:
stress fractures (DTSFs) = assay: Teriparatide therapy of stress fractures in NCAA collegiate athletes (FIG. 8); assay type: in vivo, humans; conditions: 20 mcg dose, at least 28 days
From the text: The current disclosure has administered teriparatide at the 20 mcg dose to young adult NCAA collegiate athletes who have DTSFs. Our promising clinical findings, see, e.g., FIG. 8, have led us to hypothesize that teriparatide will have a positive effect on bone healing and return to duty among service members with DTSFs. While a dosage of 20 mcg has been found effective, other dosages are considered within the scope of this application such as ranges from 5-50 mcg, 10-40 mcg, 15-35 mcg, 20-30 mcg, etc. In one embodiment, the preferred range is 10 mcg-40 mcg.
The PTH peptide can also be administered in conjunction with other therapeutic agents such as bisphonates, calcium, vitamin D, estrogen or estrogen-receptor binding compounds, selective estrogen receptor modulators (SERMs), bone morphogenic proteins and/or calcitonin. In one embodiment, 500 mg calcium may be administered daily for the duration of treatment with teriparatide. Vitamin D may also be administered along with teriparatide. Unless a patient is hypercalemic, defined as a total serum calcium concentration >10.4 mg/dL (>2.60 mmol/L) or ionized serum calcium >5.2 mg/dL (>1.30 mmol/L), calcium would be used as part of the treatment regimen. For patients with low vitamin D concentrations, defined as a 25(OH)D concentration of 12 to 20 ng/mL (30 to 50 nmol/L), Vitamin D may also be administered during treatment descried herein. […]

[1] = in vivo, sc
From the text: (§1) As used herein “peak concentration (CMAX) of PTH peptide in a blood plasma”, “area under concentration vs. time curve (AUC) of PTH peptide in a blood plasma”, “time to maximal plasma concentration (tMAX) of PTH peptide in a blood plasma” are pharmacokinetic parameters known to one skilled in the art. […] The “concentration vs. time curve” measures the concentration of PTH peptide in a blood serum of a subject vs. time after administration of a dosage of PTH peptide to the subject either by intranasal, intramuscular, subcutaneous, or other parenteral route of administration. “CMAX” is the maximum concentration of PTH peptide in the blood serum of a subject following a single dosage of PTH peptide to the subject. “TMAX” is the time to reach maximum concentration of PTH peptide in a blood serum of a subject following administration of a single dosage of PTH peptide to the subject. […] Mean changes of teriparatide acetate (in picograms per liter) in plasma after a single subcutaneous injection of teriparatide (filled circle 56.5 μg, filled triangle 28.2 μg) to 360 min. Bars represent standard deviation.

[2] = cited from earlier work; for bioavailability: after subcutaneous injection
osteosarcoma = conditions: over 16,000 unique patients, post-market analysis; cited from earlier work
tibial fractures = conditions: rats, after 20 and 40 days of healing, cited from earlier work
distal radial fracture = conditions: cited from earlier work; for time to radiographic healing: placebo 9.1 weeks
[3] = Plasma teriparatide concentrations after a single subcutaneous injection (FIG. 9); conditions: sc
From the text: as §1

For `CC[C@H](C)[C@H](NC(=O)[C@H](CCC(=O)O)NC(=O)[C@H](CO)NC(=O)[C@@H](NC(=O)[C@@H](N)CO)C(C)C)C(=O)N[C@@H](CCC(N)=O)C(=O)N[C@@H](CC(C)C)C(=O)N[C@@H](CCSC)C(=O)N[C@@H](Cc1cnc[nH]1)C(=O)N[C@@H](CC(N)=O)C(=O)N[C@@H](CC(C)C)C(=O)NCC(=O)N[C@@H](CCCCN)C(=O)N[C@@H](Cc1cnc[nH]1)C(=O)N[C@@H](CC(C)C)C(=O)N[C@@H](CC(N)=O)C(=O)N[C@@H](CO)C(=O)N[C@@H](CCSC)C(=O)N[C@@H](CCC(=O)O)C(=O)N[C@@H](CCCN=C(N)N)C(=O)N[C@H](C(=O)N[C@@H](CCC(=O)O)C(=O)N[C@@H](Cc1c[nH]c2ccccc12)C(=O)N[C@@H](CC(C)C)C(=O)N[C@@H](CCCN=C(N)N)C(=O)N[C@@H](CCCCN)C(=O)N[C@@H](CCCCN)C(=O)N[C@@H](CC(C)C)C(=O)N[C@@H](CCC(N)=O)C(=O)N[C@@H](CC(=O)O)C(=O)N[C@H](C(=O)N[C@@H](Cc1cnc[nH]1)C(=O)N[C@@H](CC(N)=O)C(=O)N[C@@H](Cc1ccccc1)C(=O)O)C(C)C)C(C)C` [teriparatide], the “healing of the subjects' stress fractures” value (stress fractures (DTSFs)) was “resulted in healing”, the AUCinf ([1]; 28.2 ug) was 28.07 ± 2.47 ng/min/mL and the AUClast ([1]; 28.2 ug) was 25.84 ± 3.18 ng/min/mL. The AUCinf ([1]; 56.5 ug) was 52.73 ± 10.03 ng/min/mL, the AUClast ([1]; 56.5 ug) was 49.91 ± 11.33 ng/min/mL and the “time after the injection at which Cmax was achieved” value ([1]; 56.5 ug) was 1 h. For the same compound, the bioavailability [2] was 95%, the Absolute bioavailability ([2]; subcutaneous injection) was 95% and the half-life ([2]; subcutaneous injection) was “approximately 1 hour”. The “half-life after subcutaneous injection” value ([2]; subcutaneous injection) was “approximately 1 hours”, the “time to peak concentrations” value ([2]; subcutaneous injection) was 30 min and the “reported cases of osteosarcoma in humans” value (osteosarcoma) was “have not been any reported cases”. The “mechanical strength of fractures” value (tibial fractures; 60 and 200 kg/day once daily) was “increased”, the callus quantity (tibial fractures; once daily) was “increased” and the “time to healing compared with placebo group” value (distal radial fracture; 20 mcg daily for 8 weeks) was “shorter”. For the same compound, the “time to radiographic healing” value (distal radial fracture; 20 mcg daily for 8 weeks) was 7.4 weeks, the “improvement in healing time compared with placebo” value (distal radial fracture; 40 mcg daily for 8 weeks) was “not a statistically significant improvement” and the “time to radiographic healing” value (distal radial fracture; 40 mcg daily for 8 weeks) was 8.8 weeks. For the same compound, the Cmax ([3]; 28.2 ug) was 0.193 ± 0.0353 ng/mL, the Tmax ([3]; 28.2 ug) was 0.9 h and the half-life ([3]; 28.2 ug) was 1.16 ± 0.217 h. For the same compound, the Cmax ([3]; 56.5 ug) was 0.338 ± 0.134 ng/mL, the Tmax ([3]; 56.5 ug) was 0.875 h and the half-life ([3]; 56.5 ug) was 1.29 ± 0.587 h.
In the case of “PTH 1-84: full-length human parathyroid hormone, an 84 amino acids peptide with N-terminal and C-terminal regions”, the bioavailability [2] is given as 55%, the duration of action ([2]; compared with PTH 1-34) is given as “longer” and the “half-life after subcutaneous injection” value ([2]; subcutaneous injection) is given as “approximately 2.5 hours”.
